Laboratory results from PubChem BioAssay AID2060503 (Molecular Pharmacology Branch, DTP, NCI, 2025).

What follows are compounds tested on 817829-284-R-J1-PDC complex spheroids, viability (assay: Anticancer human tumor 817829-284-R-J1-PDC patient-derived colon adenocarcinoma cell line growth inhibition [GQUAD]). Conditions: second compound 3.16 µM; first compound 0.0999 µM; hits give low values.
Method in brief: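 Viability of tumor cells grown as complex spheroids with endothelial and stromal cells, exposed to drug combinations. Top concentration at or near clinical Cmax (else 10 microM), diluted in half-log increments.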
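Also: spheroids exposed to agents for 7 days before readout; percent viability relative to DMSO vehicle control taken as 100%.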

Row | SMILES | viability, T/C [%]
1 | Cc1[nH]c2ccccc2c1CCNCc1ccc(/C=C/C(=O)NO)cc1 + Cc1cnc(CNC(=O)c2c(=O)c3ccc(N4CCCN(C)CC4)nc3n3c2sc2ccccc23)cn1 | 0.11

Same assay, conditions: second compound 3.16 µM; first compound 0.1 µM; hits give low values

Row | SMILES | viability, T/C [%]
2 | C#Cc1c(F)ccc2cc(O)cc(-c3ncc4c(N5CC6CCC(C5)N6)nc(OCC56CCCN5CC(F)C6)nc4c3F)c12 (stereo unspecified) + Cc1cnc(CNC(=O)c2c(=O)c3ccc(N4CCCN(C)CC4)nc3n3c2sc2ccccc23)cn1 | 20.1
3 | C=CCn1c(=O)c2cnc(Nc3ccc(N4CCN(C)CC4)cc3)nc2n1-c1cccc(C(C)(C)O)n1 + Cc1cnc(CNC(=O)c2c(=O)c3ccc(N4CCCN(C)CC4)nc3n3c2sc2ccccc23)cn1 | 17
4 | CC(C)(O)C1CCC(Nc2ccc3ncc(-c4cccc(C(F)(F)F)c4)n3n2)CC1 (stereo unspecified) + Cc1cnc(CNC(=O)c2c(=O)c3ccc(N4CCCN(C)CC4)nc3n3c2sc2ccccc23)cn1 | 18
5 | CCCS(=O)(=O)Nc1ccc(F)c(C(=O)c2c[nH]c3ncc(-c4ccc(Cl)cc4)cc23)c1F + Cc1cnc(CNC(=O)c2c(=O)c3ccc(N4CCCN(C)CC4)nc3n3c2sc2ccccc23)cn1 | 17.4
6 | O=C(NO)c1cnc(N2CCN(S(=O)(=O)c3ccc4ccccc4c3)CC2)nc1 + Cc1cnc(CNC(=O)c2c(=O)c3ccc(N4CCCN(C)CC4)nc3n3c2sc2ccccc23)cn1 | 12.7

Same assay, conditions: second compound 3.16 µM; first compound 0.316 µM; hits give low values

Row | SMILES | viability, T/C [%]
7 | C#Cc1c(F)ccc2cc(O)cc(-c3ncc4c(N5CC6CCC(C5)N6)nc(OCC56CCCN5CC(F)C6)nc4c3F)c12 (stereo unspecified) + Cc1cnc(CNC(=O)c2c(=O)c3ccc(N4CCCN(C)CC4)nc3n3c2sc2ccccc23)cn1 | 18.8
8 | C=CCn1c(=O)c2cnc(Nc3ccc(N4CCN(C)CC4)cc3)nc2n1-c1cccc(C(C)(C)O)n1 + Cc1cnc(CNC(=O)c2c(=O)c3ccc(N4CCCN(C)CC4)nc3n3c2sc2ccccc23)cn1 | 14.1
9 | CC(C)(O)C1CCC(Nc2ccc3ncc(-c4cccc(C(F)(F)F)c4)n3n2)CC1 (stereo unspecified) + Cc1cnc(CNC(=O)c2c(=O)c3ccc(N4CCCN(C)CC4)nc3n3c2sc2ccccc23)cn1 | 19.1
10 | CCCS(=O)(=O)Nc1ccc(F)c(C(=O)c2c[nH]c3ncc(-c4ccc(Cl)cc4)cc23)c1F + Cc1cnc(CNC(=O)c2c(=O)c3ccc(N4CCCN(C)CC4)nc3n3c2sc2ccccc23)cn1 | 15.1
11 | Cc1[nH]c2ccccc2c1CCNCc1ccc(/C=C/C(=O)NO)cc1 + Cc1cnc(CNC(=O)c2c(=O)c3ccc(N4CCCN(C)CC4)nc3n3c2sc2ccccc23)cn1 | 0.1
12 | O=C(NO)c1cnc(N2CCN(S(=O)(=O)c3ccc4ccccc4c3)CC2)nc1 + Cc1cnc(CNC(=O)c2c(=O)c3ccc(N4CCCN(C)CC4)nc3n3c2sc2ccccc23)cn1 | 0.09

Same assay, conditions: second compound 3.16 µM; first compound 1 µM; hits give low values

Row | SMILES | viability, T/C [%]
13 | C#Cc1c(F)ccc2cc(O)cc(-c3ncc4c(N5CC6CCC(C5)N6)nc(OCC56CCCN5CC(F)C6)nc4c3F)c12 (stereo unspecified) + Cc1cnc(CNC(=O)c2c(=O)c3ccc(N4CCCN(C)CC4)nc3n3c2sc2ccccc23)cn1 | 17.3
14 | C=CCn1c(=O)c2cnc(Nc3ccc(N4CCN(C)CC4)cc3)nc2n1-c1cccc(C(C)(C)O)n1 + Cc1cnc(CNC(=O)c2c(=O)c3ccc(N4CCCN(C)CC4)nc3n3c2sc2ccccc23)cn1 | 9.62
15 | CC(C)(O)C1CCC(Nc2ccc3ncc(-c4cccc(C(F)(F)F)c4)n3n2)CC1 (stereo unspecified) + Cc1cnc(CNC(=O)c2c(=O)c3ccc(N4CCCN(C)CC4)nc3n3c2sc2ccccc23)cn1 | 9.34
16 | CCCS(=O)(=O)Nc1ccc(F)c(C(=O)c2c[nH]c3ncc(-c4ccc(Cl)cc4)cc23)c1F + Cc1cnc(CNC(=O)c2c(=O)c3ccc(N4CCCN(C)CC4)nc3n3c2sc2ccccc23)cn1 | 12.9
17 | O=C(NO)c1cnc(N2CCN(S(=O)(=O)c3ccc4ccccc4c3)CC2)nc1 + Cc1cnc(CNC(=O)c2c(=O)c3ccc(N4CCCN(C)CC4)nc3n3c2sc2ccccc23)cn1 | 0.05

Same assay, conditions: second compound 3.16 µM; first compound 3.16 µM; hits give low values

Row | SMILES | viability, T/C [%]
18 | C#Cc1c(F)ccc2cc(O)cc(-c3ncc4c(N5CC6CCC(C5)N6)nc(OCC56CCCN5CC(F)C6)nc4c3F)c12 (stereo unspecified) + Cc1cnc(CNC(=O)c2c(=O)c3ccc(N4CCCN(C)CC4)nc3n3c2sc2ccccc23)cn1 | 22.7
19 | C=CCn1c(=O)c2cnc(Nc3ccc(N4CCN(C)CC4)cc3)nc2n1-c1cccc(C(C)(C)O)n1 + Cc1cnc(CNC(=O)c2c(=O)c3ccc(N4CCCN(C)CC4)nc3n3c2sc2ccccc23)cn1 | 6.71
20 | CC(C)(O)C1CCC(Nc2ccc3ncc(-c4cccc(C(F)(F)F)c4)n3n2)CC1 (stereo unspecified) + Cc1cnc(CNC(=O)c2c(=O)c3ccc(N4CCCN(C)CC4)nc3n3c2sc2ccccc23)cn1 | 0.09
21 | CCCS(=O)(=O)Nc1ccc(F)c(C(=O)c2c[nH]c3ncc(-c4ccc(Cl)cc4)cc23)c1F + Cc1cnc(CNC(=O)c2c(=O)c3ccc(N4CCCN(C)CC4)nc3n3c2sc2ccccc23)cn1 | 12.2
22 | O=C(NO)c1cnc(N2CCN(S(=O)(=O)c3ccc4ccccc4c3)CC2)nc1 + Cc1cnc(CNC(=O)c2c(=O)c3ccc(N4CCCN(C)CC4)nc3n3c2sc2ccccc23)cn1 | 0.06

Same assay, conditions: second compound 3.16 µM; first compound 10 µM; hits give low values

Row | SMILES | viability, T/C [%]
23 | C#Cc1c(F)ccc2cc(O)cc(-c3ncc4c(N5CC6CCC(C5)N6)nc(OCC56CCCN5CC(F)C6)nc4c3F)c12 (stereo unspecified) + Cc1cnc(CNC(=O)c2c(=O)c3ccc(N4CCCN(C)CC4)nc3n3c2sc2ccccc23)cn1 | 20.5
24 | C=CCn1c(=O)c2cnc(Nc3ccc(N4CCN(C)CC4)cc3)nc2n1-c1cccc(C(C)(C)O)n1 + Cc1cnc(CNC(=O)c2c(=O)c3ccc(N4CCCN(C)CC4)nc3n3c2sc2ccccc23)cn1 | 6.66
25 | CC(C)(O)C1CCC(Nc2ccc3ncc(-c4cccc(C(F)(F)F)c4)n3n2)CC1 (stereo unspecified) + Cc1cnc(CNC(=O)c2c(=O)c3ccc(N4CCCN(C)CC4)nc3n3c2sc2ccccc23)cn1 | 0.09
26 | CCCS(=O)(=O)Nc1ccc(F)c(C(=O)c2c[nH]c3ncc(-c4ccc(Cl)cc4)cc23)c1F + Cc1cnc(CNC(=O)c2c(=O)c3ccc(N4CCCN(C)CC4)nc3n3c2sc2ccccc23)cn1 | 2.83
27 | O=C(NO)c1cnc(N2CCN(S(=O)(=O)c3ccc4ccccc4c3)CC2)nc1 + Cc1cnc(CNC(=O)c2c(=O)c3ccc(N4CCCN(C)CC4)nc3n3c2sc2ccccc23)cn1 | 0.09

Same assay, conditions: second compound 10 µM; first compound 0.000999 µM; hits give low values

Row | SMILES | viability, T/C [%]
28 | Cc1[nH]c2ccccc2c1CCNCc1ccc(/C=C/C(=O)NO)cc1 + Cc1cnc(CNC(=O)c2c(=O)c3ccc(N4CCCN(C)CC4)nc3n3c2sc2ccccc23)cn1 | 0.1

Same assay, conditions: second compound 10 µM; first compound 0.00316 µM; hits give low values

Row | SMILES | viability, T/C [%]
29 | Cc1[nH]c2ccccc2c1CCNCc1ccc(/C=C/C(=O)NO)cc1 + Cc1cnc(CNC(=O)c2c(=O)c3ccc(N4CCCN(C)CC4)nc3n3c2sc2ccccc23)cn1 | 0.14

Same assay, conditions: second compound 10 µM; first compound 0.00999 µM; hits give low values

Row | SMILES | viability, T/C [%]
30 | Cc1[nH]c2ccccc2c1CCNCc1ccc(/C=C/C(=O)NO)cc1 + Cc1cnc(CNC(=O)c2c(=O)c3ccc(N4CCCN(C)CC4)nc3n3c2sc2ccccc23)cn1 | 0.2

Same assay, conditions: second compound 10 µM; first compound 0.0316 µM; hits give low values

Row | SMILES | viability, T/C [%]
31 | C#Cc1c(F)ccc2cc(O)cc(-c3ncc4c(N5CC6CCC(C5)N6)nc(OCC56CCCN5CC(F)C6)nc4c3F)c12 (stereo unspecified) + Cc1cnc(CNC(=O)c2c(=O)c3ccc(N4CCCN(C)CC4)nc3n3c2sc2ccccc23)cn1 | 0.13
